Data: ChEMBL document CHEMBL4673219, “Novel 5,6-disubstituted pyrrolo[2,3-d]pyrimidine derivatives as broad spectrum antiproliferative agents: Synthesis, cell based assays, kinase profile and molecular docking study” (Bioorg Med Chem, 2018)

Tests used:
MCF7 [1] = test: Antiproliferative activity against human MCF7 cells assessed as cell growth inhibition at 10 uM measured after 72 hrs by MTT assay relative to control; assay type: functional; details: read-out: GI
HCT-116 [2] = test: Antiproliferative activity against human HCT-116 cells assessed as cell growth inhibition at 10 uM measured after 72 hrs by MTT assay relative to control; assay type: functional; details: read-out: GI
SK-BR-3 [3] = test: Antiproliferative activity against human SK-BR-3 cells assessed as cell growth inhibition at 10 uM measured after 72 hrs by MTT assay relative to control; assay type: functional; details: read-out: GI
HCT-116 [4] = test: Antiproliferative activity against human HCT-116 cells assessed as cell growth inhibition measured after 72 hrs by MTT assay; assay type: functional
SK-BR-3 [5] = test: Antiproliferative activity against human SK-BR-3 cells assessed as cell growth inhibition measured after 72 hrs by MTT assay; assay type: functional
MCF7 [6] = test: Antiproliferative activity against human MCF7 cells assessed as cell growth inhibition measured after 72 hrs by MTT assay; assay type: functional
[7] = molecular target: High affinity nerve growth factor receptor (Homo sapiens, UniProt P04629); test: Inhibition of human Trk-A using myelin basic protein as substrate incubated for 40 mins in presence of [gamma33P]ATP by scintillation counting method
High affinity nerve growth factor receptor, sequence (P04629 whole entry): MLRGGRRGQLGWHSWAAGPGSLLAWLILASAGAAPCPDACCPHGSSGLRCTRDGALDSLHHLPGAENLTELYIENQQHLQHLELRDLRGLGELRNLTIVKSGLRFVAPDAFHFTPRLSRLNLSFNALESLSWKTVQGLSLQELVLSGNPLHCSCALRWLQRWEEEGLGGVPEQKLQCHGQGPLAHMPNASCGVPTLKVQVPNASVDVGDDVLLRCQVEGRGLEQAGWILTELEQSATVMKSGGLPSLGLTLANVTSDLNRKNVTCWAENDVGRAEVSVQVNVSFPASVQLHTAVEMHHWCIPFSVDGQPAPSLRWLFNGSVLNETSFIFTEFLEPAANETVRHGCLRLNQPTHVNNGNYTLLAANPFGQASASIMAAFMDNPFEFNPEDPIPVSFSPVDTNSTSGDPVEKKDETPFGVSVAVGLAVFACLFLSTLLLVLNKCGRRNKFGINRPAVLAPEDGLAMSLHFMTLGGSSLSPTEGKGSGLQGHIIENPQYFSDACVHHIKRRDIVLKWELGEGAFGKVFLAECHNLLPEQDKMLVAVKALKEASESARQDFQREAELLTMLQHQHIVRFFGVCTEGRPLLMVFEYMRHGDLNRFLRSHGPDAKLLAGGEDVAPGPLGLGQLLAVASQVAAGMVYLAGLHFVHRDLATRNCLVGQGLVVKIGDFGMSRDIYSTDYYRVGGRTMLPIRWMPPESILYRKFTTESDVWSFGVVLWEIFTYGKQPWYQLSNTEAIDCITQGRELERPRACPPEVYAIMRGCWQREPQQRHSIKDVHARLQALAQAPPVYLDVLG

[8] = molecular target: Fibroblast growth factor receptor 2 (Homo sapiens) (UniProt P21802); test: Inhibition of human FGFR2 at 10 uM using myelin basic protein as substrate incubated for 40 mins in presence of [gamma33P]ATP by scintillation counting method relative to control
Fibroblast growth factor receptor 2 (Homo sapiens), sequence (P21802 22-821 limits assumed): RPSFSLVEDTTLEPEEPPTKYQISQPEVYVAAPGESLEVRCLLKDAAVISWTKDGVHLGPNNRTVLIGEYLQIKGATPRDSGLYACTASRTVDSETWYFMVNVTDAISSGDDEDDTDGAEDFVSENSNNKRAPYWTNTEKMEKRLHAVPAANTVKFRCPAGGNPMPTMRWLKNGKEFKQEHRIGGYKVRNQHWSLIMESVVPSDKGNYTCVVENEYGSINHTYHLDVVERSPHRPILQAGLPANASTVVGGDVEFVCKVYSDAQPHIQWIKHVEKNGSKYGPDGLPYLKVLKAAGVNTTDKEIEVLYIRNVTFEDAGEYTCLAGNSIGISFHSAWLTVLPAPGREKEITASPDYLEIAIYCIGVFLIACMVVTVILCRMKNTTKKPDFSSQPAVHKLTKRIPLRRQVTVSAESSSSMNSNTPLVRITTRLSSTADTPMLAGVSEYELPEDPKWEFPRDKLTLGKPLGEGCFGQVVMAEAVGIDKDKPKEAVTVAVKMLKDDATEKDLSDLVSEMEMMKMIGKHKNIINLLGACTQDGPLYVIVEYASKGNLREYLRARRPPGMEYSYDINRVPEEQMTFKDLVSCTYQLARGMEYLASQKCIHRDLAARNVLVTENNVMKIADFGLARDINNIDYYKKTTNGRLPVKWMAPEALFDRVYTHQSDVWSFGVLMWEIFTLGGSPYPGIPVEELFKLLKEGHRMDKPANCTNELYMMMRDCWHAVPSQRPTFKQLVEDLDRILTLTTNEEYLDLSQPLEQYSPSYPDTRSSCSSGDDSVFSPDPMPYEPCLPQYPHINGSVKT

[9] = molecular target: Fibroblast growth factor receptor 1 (Homo sapiens) (UniProt P11362); test: Inhibition of human FGFR1 at 10 uM using myelin basic protein as substrate incubated for 40 mins in presence of [gamma33P]ATP by scintillation counting method relative to control
Fibroblast growth factor receptor 1 (Homo sapiens), sequence (P11362 22-822 limits assumed): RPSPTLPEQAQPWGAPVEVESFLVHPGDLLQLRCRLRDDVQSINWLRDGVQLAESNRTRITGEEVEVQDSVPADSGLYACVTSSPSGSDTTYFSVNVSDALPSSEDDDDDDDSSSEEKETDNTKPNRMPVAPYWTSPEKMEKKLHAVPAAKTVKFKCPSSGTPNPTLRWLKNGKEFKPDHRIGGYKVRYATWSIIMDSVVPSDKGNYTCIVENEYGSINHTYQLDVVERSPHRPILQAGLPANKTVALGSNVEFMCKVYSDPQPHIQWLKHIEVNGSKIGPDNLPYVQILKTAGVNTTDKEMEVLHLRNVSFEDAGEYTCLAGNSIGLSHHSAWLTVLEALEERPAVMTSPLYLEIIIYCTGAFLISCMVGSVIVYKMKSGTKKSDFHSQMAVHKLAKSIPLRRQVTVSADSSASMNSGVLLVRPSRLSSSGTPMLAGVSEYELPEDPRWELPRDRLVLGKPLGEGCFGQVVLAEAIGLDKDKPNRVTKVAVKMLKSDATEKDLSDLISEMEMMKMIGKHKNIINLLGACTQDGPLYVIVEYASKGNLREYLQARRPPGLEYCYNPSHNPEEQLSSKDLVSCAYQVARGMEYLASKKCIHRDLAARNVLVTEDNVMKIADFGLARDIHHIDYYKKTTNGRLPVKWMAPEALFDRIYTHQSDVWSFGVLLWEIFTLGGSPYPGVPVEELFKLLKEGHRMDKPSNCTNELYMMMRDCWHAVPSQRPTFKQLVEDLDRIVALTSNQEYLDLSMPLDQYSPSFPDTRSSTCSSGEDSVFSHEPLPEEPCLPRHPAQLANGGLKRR

Structure (SMILES) | inhibition of growth at 10 µM (MCF7 [1]) | inhibition of growth at 10 µM (HCT-116 [2]) | inhibition of growth at 10 µM (SK-BR-3 [3]) | GI50 (HCT-116 [4]) | GI50 (SK-BR-3 [5]) | GI50 (MCF7 [6]) | IC50 [7] | inhibition [8] | inhibition [9]
CCCCCCCC(=O)Nc1nc2[nH]cc(CN3CCN(C(=O)c4ccco4)CC3)c2c(=O)[nH]1 | 68.5% | 60.2% | 71.2% | – | – | – | – | – | –
CCCCCCCC(=O)Nc1nc2[nH]cc(CN3CCN(c4ccc(OC)cc4)CC3)c2c(=O)[nH]1 | 49.2% | 71.4% | 71.4% | 8.94 µM | 1.23 µM | – | – | – | –
Nc1nc2[nH]cc(CN3CCN(c4cccc(Cl)c4)CC3)c2c(=O)[nH]1 | 54.2% | 79.3% | 67.5% | 7.66 µM | 8.28 µM | – | – | – | –
Nc1nc2[nH]cc(CN3CCN(Cc4cccc(F)c4)CC3)c2c(=O)[nH]1 | 20.6% | 31.1% | 16.8% | – | – | – | – | – | –
Nc1nc2[nH]c(CN3CCN(Cc4cccc(F)c4)CC3)c(CN3CCN(Cc4cccc(F)c4)CC3)c2c(=O)[nH]1 | 16.1% | 13.6% | 10.5% | – | – | – | – | – | –
Nc1nc(O)c2c(CN3CCCCC3)c[nH]c2n1 | 23.8% | 24.1% | 17.5% | – | – | – | – | – | –
Nc1nc2[nH]c(CN3CCN(Cc4ccccc4)CC3)c(CN3CCN(Cc4ccccc4)CC3)c2c(=O)[nH]1 | 21.2% | 21.4% | 15.7% | – | – | – | – | – | –
CCCCCCCC(=O)Nc1nc2[nH]cc(CN3CCN(CCO)CC3)c2c(=O)[nH]1 | 42% | 67.3% | 62.2% | – | – | – | – | – | –
CCCCCCCC(=O)Nc1nc2[nH]cc(Cn3ccnc3)c2c(=O)[nH]1 | 68.2% | 80.5% | 86.1% | – | – | – | – | – | –
CCCCCCCC(=O)Nc1nc2[nH]c(CN3CCN(C(c4ccccc4)c4ccccc4)CC3)c(CN3CCN(C(c4ccccc4)c4ccccc4)CC3)c2c(=O)[nH]1 | 15.2% | 41.5% | 67.3% | 18.4 µM | 6.43 µM | – | – | – | –
CCCCCCCC(=O)Nc1nc2[nH]cc(CN3CCN(c4ccccc4C#N)CC3)c2c(=O)[nH]1 | 59.2% | 79.5% | 84.6% | 1.46 µM | 0.97 µM | – | – | – | –
CCCCCCCC(=O)Nc1nc2[nH]cc(CN3CCN(C(c4ccccc4)c4ccccc4)CC3)c2c(=O)[nH]1 | 58.4% | 75.5% | 67.4% | 1.01 µM | 0.41 µM | – | – | – | –
Nc1nc2[nH]cc(CN3CCN(CCO)CC3)c2c(=O)[nH]1 | 18.8% | 17.8% | 32.8% | – | – | – | – | – | –
CCCCCCCC(=O)Nc1nc2[nH]c(CN3CCN(c4ccc([N+](=O)[O-])cc4)CC3)c(CN3CCN(c4ccc([N+](=O)[O-])cc4)CC3)c2c(=O)[nH]1 | 12.6% | 27% | 64.6% | – | – | – | – | – | –
N#Cc1ccccc1N1CCN(Cc2c[nH]c3nc(N)[nH]c(=O)c23)CC1 | 51.1% | 72% | 73.8% | 8.37 µM | 23.7 µM | – | – | – | –
CCCCCCCC(=O)Nc1nc2[nH]cc(CN3CCC(NC(=O)OC(C)(C)C)CC3)c2c(=O)[nH]1 | 36.5% | 50.3% | 59.3% | – | – | – | – | – | –
Nc1nc2[nH]c(CN3CCN(Cc4ccccc4F)CC3)c(CN3CCN(Cc4ccccc4F)CC3)c2c(=O)[nH]1 | 8.91% | 12.8% | 59% | – | – | – | – | – | –
Nc1nc2[nH]cc(CN3CCN(CCN4CCOCC4)CC3)c2c(=O)[nH]1 | 19.5% | 15.4% | 27.1% | – | – | – | – | – | –
CCCCCCCC(=O)Nc1nc2[nH]cc(CN3CCN(Cc4cccc(F)c4)CC3)c2c(=O)[nH]1 | 85.7% | 92.8% | 91.2% | 5.34 µM | 5.58 µM | 7.84 µM | – | – | –
COc1c(C)cnc(Cn2cnc3c(Cl)nc(N)nc32)c1C [BIIB021] | 84.8% | 86.2% | 71.9% | – | 0.347 µM | 0.392 µM | – | – | –
CCCCCCCC(=O)Nc1nc2[nH]cc(CN3CCN(C)CC3)c2c(=O)[nH]1 | 59.6% | 51% | 50.4% | – | – | – | – | – | –

Structure (SMILES) | inhibition of growth at 10 µM (MCF7 [1]) | inhibition of growth at 10 µM (HCT-116 [2]) | inhibition of growth at 10 µM (SK-BR-3 [3]) | GI50 (HCT-116 [4]) | GI50 (SK-BR-3 [5]) | GI50 (MCF7 [6]) | IC50 [7] | inhibition [8] | inhibition [9]
Nc1nc2[nH]cc(Cn3ccnc3)c2c(=O)[nH]1 | 38.8% | 50.6% | 38.8% | – | – | – | – | – | –
Nc1nc2[nH]cc(CN3CCN(c4ccccc4)CC3)c2c(=O)[nH]1 | 49.7% | 49% | 30.7% | – | – | – | – | – | –
CCCCCCCC(=O)Nc1nc2[nH]cc(CN3CCN(c4ccccc4)CC3)c2c(=O)[nH]1 | 50.3% | 73.9% | 67.6% | 3.99 µM | 0.63 µM | – | – | – | –
CC(=O)N1CCN(Cc2c[nH]c3nc(N)[nH]c(=O)c23)CC1 | 16.2% | 13.8% | 24.2% | – | – | – | – | – | –
Nc1nc2[nH]cc(CN3CCN(C(c4ccccc4)c4ccccc4)CC3)c2c(=O)[nH]1 | 79.5% | 80.5% | 4.22% | 20.3 µM | – | 33.9 µM | – | – | –
Nc1nc2[nH]cc(CN3CCN(c4ccc([N+](=O)[O-])cc4)CC3)c2c(=O)[nH]1 | 26.8% | 28.5% | 27.5% | – | – | – | – | – | –
CCCCCCCC(=O)Nc1nc2[nH]cc(CN3CCCCC3)c2c(=O)[nH]1 | 70.2% | 51.1% | 77.1% | 14.9 µM | 15 µM | 13.4 µM | – | – | –
CCCCCCCC(=O)Nc1nc2[nH]cc(CN3CCN(CCN4CCOCC4)CC3)c2c(=O)[nH]1 | 88.6% | 93% | 90.4% | – | – | – | – | – | –
CCCCCCCC(=O)Nc1nc2[nH]cc(CN3CCN(c4ccc([N+](=O)[O-])cc4)CC3)c2c(=O)[nH]1 | 40.4% | 68.5% | 61.6% | – | 8.04 µM | – | – | – | –
CCCCCCCC(=O)Nc1nc2[nH]c(CN3CCN(Cc4ccccc4)CC3)c(CN3CCN(Cc4ccccc4)CC3)c2c(=O)[nH]1 | 96.6% | 97% | 93.4% | 4.09 µM | 3.64 µM | 2.78 µM | 2.29 µM | 24% | 47.1%
CCCCCCCC(=O)Nc1nc2[nH]cc(CN3CCN(c4cccc(Cl)c4)CC3)c2c(=O)[nH]1 | 43.4% | 72.7% | 69.7% | 7.17 µM | 0.95 µM | – | – | – | –
CN1CCN(Cc2c[nH]c3nc(N)[nH]c(=O)c23)CC1 | 20.2% | 16.5% | 29% | – | – | – | – | – | –
CCCCCCCC(=O)Nc1nc2[nH]c(CN3CCN(c4cc(Cl)cc(Cl)c4)CC3)c(CN3CCN(c4cc(Cl)cc(Cl)c4)CC3)c2c(=O)[nH]1 | 10.7% | 6.88% | 42.5% | – | – | – | – | – | –
CCCCCCCC(=O)Nc1nc2[nH]cc(CN3CCN(C(C)=O)CC3)c2c(=O)[nH]1 | 35.8% | 43.8% | 40.2% | – | – | – | – | – | –
Nc1nc2[nH]c(CN3CCN(C(c4ccccc4)c4ccccc4)CC3)c(CN3CCN(C(c4ccccc4)c4ccccc4)CC3)c2c(=O)[nH]1 | 13.8% | 10.7% | 11.1% | – | – | – | – | – | –
CCCCCCCC(=O)Nc1nc2[nH]c(CN3CCN(Cc4ccccc4F)CC3)c(CN3CCN(Cc4ccccc4F)CC3)c2c(=O)[nH]1 | 96.1% | 97.3% | 93.4% | 1.89 µM | 3.73 µM | 4.2 µM | 3.15 µM | 23% | 59.8%
COc1ccc(N2CCN(Cc3c[nH]c4nc(N)[nH]c(=O)c34)CC2)cc1 | 51.7% | 69.2% | 57.5% | – | 11.2 µM | – | – | – | –
Nc1nc2[nH]c(CN3CCN(Cc4ccc(F)cc4)CC3)c(CN3CCN(Cc4ccc(F)cc4)CC3)c2c(=O)[nH]1 | 18.4% | 23% | 23.2% | – | – | – | – | – | –
Nc1nc2[nH]c(CN3CCN(c4ccc([N+](=O)[O-])cc4)CC3)c(CN3CCN(c4ccc([N+](=O)[O-])cc4)CC3)c2c(=O)[nH]1 | 1.26% | 1.94% | 6.79% | – | – | – | – | – | –
CCCCCCCC(=O)Nc1nc2[nH]c(CN3CCN(Cc4ccc(F)cc4)CC3)c(CN3CCN(Cc4ccc(F)cc4)CC3)c2c(=O)[nH]1 | 97.2% | 97.1% | 93.5% | 4.13 µM | 3.6 µM | 1.75 µM | 2.76 µM | 14.7% | 50.5%
